From article PMC4643906, “Interaction of the N-(3-Methylpyridin-2-yl)amide Derivatives of Flurbiprofen and Ibuprofen with FAAH: Enantiomeric Selectivity and Binding Mode” (PLoS ONE, 2015)
Substitutions are numbered along the chain they refer to. Where two headings read alike, the source gives them in different places.

Columns and labels:
rat brain FAAH = target: T1, rat brain FAAH (Rattus norvegicus, UniProt P97612); assay: Inhibition of [3H]AEA hydrolysis in rat brain homogenates; format: biochemical; conditions: for remaining activity at 0.7 µM: 0.7 μM inhibitor; for mode of inhibition (best-fit model) / α / Ki: 0.5–4 μM [3H]AEA; for mode of inhibition (best-fit model): compared with pure competitive model; for interaction with carprofen in multiple inhibition experiments: Dixon plots, together with carprofen
T1 construct: from tissue; host or cells: rat brain (minus cerebellum), washed membrane pellet
T1 sequence (P97612 1-579): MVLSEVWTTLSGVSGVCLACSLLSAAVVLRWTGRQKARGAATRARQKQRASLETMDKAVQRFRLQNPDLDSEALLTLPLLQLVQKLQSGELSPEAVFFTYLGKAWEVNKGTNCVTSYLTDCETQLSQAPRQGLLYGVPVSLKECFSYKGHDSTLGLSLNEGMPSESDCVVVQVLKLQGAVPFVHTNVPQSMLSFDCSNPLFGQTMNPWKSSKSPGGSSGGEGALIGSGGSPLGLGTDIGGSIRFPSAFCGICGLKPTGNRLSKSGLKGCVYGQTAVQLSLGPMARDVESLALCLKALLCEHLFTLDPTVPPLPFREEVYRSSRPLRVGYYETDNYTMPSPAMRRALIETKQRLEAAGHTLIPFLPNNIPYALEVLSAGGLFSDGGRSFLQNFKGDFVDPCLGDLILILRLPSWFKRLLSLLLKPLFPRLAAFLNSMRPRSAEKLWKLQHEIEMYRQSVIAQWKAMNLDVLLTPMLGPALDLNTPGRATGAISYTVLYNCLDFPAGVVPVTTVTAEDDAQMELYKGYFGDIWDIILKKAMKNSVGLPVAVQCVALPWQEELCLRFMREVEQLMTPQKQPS
Method: (§1) Brains (minus cerebella) from adult Wistar or Sprague-Dawley rats (killed by decapitation) and from male B6CBAF1/J mice (killed by cervical dislocation), stored at -80°C, were thawed, weighed and homogenized in cold buffer (20 mM HEPES, 1 mM MgCl2 pH 7.0). Homogenates were centrifuged (35,000 g at 4°C for 20 min) before the pellet was resuspended in cold homogenization buffer. Centrifugation and resuspension was repeated twice. The suspension was incubated at 37°C for 15 min to degrade any endogenous substrate able to interfere with the FAAH assay. After centrifugation (35,000 g at 4°C for 20 min), the pellet was resuspended in cold buffer (50 mM Tris-HCl, 1mM EDTA, 3 mM MgCl2, pH 7.4). The protein concentration was determined according to [27] after which the samples were frozen in aliquots at -80°C.
(§2) The assays were performed according to [28] with minor modifications. Briefly, homogenates or cell lysates in assay buffer (10 mM Tris-HCl, 1mM EDTA, pH 7.4) were mixed with substance dissolved in ethanol on ice. Hydrolysis reactions were initiated by addition of substrate ([^3H]AEA in 10 mM Tris-HCl, 1mM EDTA, pH 7.4 containing 10 mg ml^-1 fatty acid-free bovine serum, assay concentration 0.5 μM unless otherwise stated) and incubation at 37°C. For the brain homogenates, hydrolysis at 37°C was allowed to proceed for 10 min (assay volume was 200 μL, with 1 and 0.3 μg/assay protein concentrations of the rat and mouse homogenates, respectively). For the kinetic experiments, the AEA: fatty acid-free bovine serum albumin ratio was kept constant at 1: ~4.5 (μM). Following incubation, reactions were stopped by addition of 400 μL activated charcoal (80 μL activated charcoal + 320 μL 0.5 M HCl) and placement of samples on ice before centrifugation at 2500 rpm for 10 min. Aliquots (200 μL) of the supernatant were analyzed for tritium content by liquid scintillation spectroscopy with quench correction. Sample sizes were chosen on the basis of previous data investigating FAAH inhibitory properties of compounds.
(§3) pI50 and IC50 values were calculated using log(inhibitor) vs. response with variable slope (four parameters) algorithm in the GraphPad Prism computer program (GraphPad Software Inc., San Diego, CA. USA). […] The best fit was chosen by Akaike’s informative criteria. Ki and α values were obtained using the enzyme kinetics mixed model inhibition curve fitting algorithm available in the GraphPad Prism programme. This models the observed velocity v^app at a given substrate concentration where v^app = Vmax ^app/(1 + Km ^app/[S]), Vmax ^app = Vmax/(1+[I]/(αKi)) and Km ^app = Km(1+[I]/Ki)/(1+[I]/(αKi)) (http://www.graphpad.com/guides/prism/6/curve-fitting/index.htm?reg_mixered_model.htm, URL checked 16 October 2015). The model assuming competitive interactions (where α→∞) was also used, and the best fit was chosen by Akaike’s informative criteria. Robust linear regressions for the Dixon plots, which are less sensitive to outliers than the standard least-squares methodology were undertaken using the same computer programme.

[1] = target: T2, rat wild-type FAAH (FAAH^wt) (Rattus norvegicus, UniProt P97612); assay: Inhibition of [3H]AEA hydrolysis in lysates of HeLa cells expressing wild-type FAAH; format: biochemical
T2 construct: expressed in transfected cells; host or cells: HeLa cells, pcDNA4 plasmid, lysate
T2 sequence (P97612 1-579): T1 sequence (P97612 1-579)

mouse brain FAAH [2] = target: T3, mouse brain FAAH (Mus musculus, UniProt O08914); assay: Inhibition of [3H]AEA hydrolysis in mouse brain homogenates; format: biochemical; conditions: 0.5 μM [3H]AEA
T3 construct: from tissue; host or cells: mouse brain (minus cerebellum), washed membrane pellet
T3 sequence (O08914 1-579): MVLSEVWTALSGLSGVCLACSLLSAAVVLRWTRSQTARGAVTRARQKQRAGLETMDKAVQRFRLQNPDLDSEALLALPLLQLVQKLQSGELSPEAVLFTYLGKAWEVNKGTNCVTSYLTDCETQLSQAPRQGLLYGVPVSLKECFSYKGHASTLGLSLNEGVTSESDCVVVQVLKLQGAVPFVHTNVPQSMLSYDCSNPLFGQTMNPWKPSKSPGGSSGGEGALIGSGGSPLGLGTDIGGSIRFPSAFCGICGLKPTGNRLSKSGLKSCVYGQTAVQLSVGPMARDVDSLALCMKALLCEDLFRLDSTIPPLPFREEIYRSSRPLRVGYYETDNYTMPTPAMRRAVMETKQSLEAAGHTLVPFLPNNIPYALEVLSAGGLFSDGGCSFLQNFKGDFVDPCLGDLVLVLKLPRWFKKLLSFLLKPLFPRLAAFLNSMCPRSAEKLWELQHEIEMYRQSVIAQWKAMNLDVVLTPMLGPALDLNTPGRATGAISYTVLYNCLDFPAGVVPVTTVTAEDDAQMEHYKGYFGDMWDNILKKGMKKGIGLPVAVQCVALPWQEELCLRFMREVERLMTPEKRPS
Method: as §1, §2, §3

FAAH^T488A = target: T4, FAAH^T488A (Rattus norvegicus, UniProt P97612, T488A); assay: Inhibition of [3H]AEA hydrolysis in lysates of HeLa cells expressing FAAH^T488A; format: biochemical; conditions: FAAH^T488A lysate 0.4 μg/assay, 18 h, 0.5 μM [3H]AEA
T4 construct: expressed in transfected cells; host or cells: HeLa cells, pcDNA4 plasmid, lysate
T4 sequence (P97612 1-579 T488A): T1 sequence (P97612 1-579) with T488A

mouse brain FAAH [3] = target: T3, mouse brain FAAH; design: method as in PMID 26406890; conditions: cited from earlier work; for IC50 / pI50: mouse brain homogenates
[4] = rat brain homogenates, 0.5 μM [3H]AEA, read-out: IC50
[5] = rat brain homogenates, 0.5 μM [3H]AEA, read-out: pI50 (converted)
[6] = FAAH^wt + empty vector (0.36 μg/assay) lysates, 18 h, 0.5 μM [3H]AEA
[7] = FAAH^wt lysate 0.04 μg/assay, 18 h, 0.5 μM [3H]AEA
[8] = preliminary experiments, another batch of wild-type FAAH, 1.5–2 μg/assay, 20 min at 37°C, read-out: potencies
[9] = linear mixed inhibition model fit
[10] = linear mixed inhibition model fit, read-out: Ki
[11] = median of Dixon plot intersections, read-out: Ki (Dixon plot)
[12] = rat brain homogenates, 0.5 μM [3H]AEA

Compound	IC50 (rat brain FAAH; [4])	IC50 (rat brain FAAH; [5])	IC50 [1, 8]	α (rat brain FAAH; [9])	Ki (rat brain FAAH; [10])	Ki (rat brain FAAH; [11])	nH (Hill slope) (rat brain FAAH; [12])	nH (Hill slope) (mouse brain FAAH [2])	other results
Cc1cccnc1NC(=O)C(C)c1ccc(CC(C)C)cc1 (racemic) [racemic Ibu-AM5, 2-(4-Isobutylphenyl)-N-(3-methylpyridin-2-yl)propanamide]	1.2 µM	1.2 µM	–	–	–	–	–	–	–
Cc1cccnc1NC(=O)[C@H](C)c1ccc(-c2ccccc2)c(F)c1 [(R)-Flu-AM1, (R)-2-(2-fluorobiphenyl-4-yl)-N-(3-methylpyridin-2-yl)propanamide]	0.74 µM	0.741 µM	1.6 µM	3.2±1.3	0.63 ± 0.17 µM	0.28 µM	0.90±0.04	0.78±0.09	nH [1, 6]: 0.99±0.06; IC50 ([1]; FAAH^wt + empty vector (0.36 μg/assay) lysates, 18 h, 0.5 μM [3H]AEA, read-out: IC50): 8 µM; IC50 ([1]; FAAH^wt + empty vector (0.36 μg/assay) lysates, 18 h, 0.5 μM [3H]AEA, read-out: pI50 (converted)): 7.94 µM; nH [1, 7]: 1.02±0.07; IC50 ([1]; FAAH^wt lysate 0.04 μg/assay, 18 h, 0.5 μM [3H]AEA, read-out: IC50): 8.3 µM; IC50 ([1]; FAAH^wt lysate 0.04 μg/assay, 18 h, 0.5 μM [3H]AEA, read-out: pI50 (converted)): 8.32 µM; remaining activity at 0.7 µM (rat brain FAAH; preincubation 0 min at 37°C): 50 ± 1%; remaining activity at 0.7 µM (rat brain FAAH; preincubation 60 min at 37°C): 39 ± 4%; mode of inhibition (best-fit model) (rat brain FAAH): linear mixed inhibition; reversibility of inhibition (rat brain FAAH; 20-fold dilution after 60 min of preincubation): completely reversible; interaction with carprofen in multiple inhibition experiments (rat brain FAAH; 0.5 μM [3H]AEA): mutually exclusive manner; nH (FAAH^T488A): 1.47±0.37; IC50 (FAAH^T488A; read-out: IC50): 28 µM; IC50 (FAAH^T488A; read-out: pI50 (converted)): 28.2 µM; mode of inhibition (mouse brain FAAH [3]; mouse brain FAAH): competitive; IC50 (mouse brain FAAH [3]): 8.8 µM; pI50 (mouse brain FAAH [3]): 5.05±0.06
Cc1cccnc1NC(=O)[C@H](C)c1ccc(CC(C)C)cc1 [(R)-Ibu-AM5, 2-(4-Isobutylphenyl)-N-(3-methylpyridin-2-yl)propanamide]	5.7 µM	5.62 µM	8.8 µM	3.1±1.1	10 ± 2.5 µM	9.8 µM	1.05±0.10	1.50±0.36	fold less potent an inhibitor of FAAH than the (S)-enantiomer (rat brain FAAH; rat FAAH): 10 fold; inhibition (rat brain FAAH; rat brain homogenates, 0.5 μM [3H]AEA, read-out: maximum inhibition (best fit)): 92%; IC50 (mouse brain FAAH [2]; read-out: IC50): 53 µM
Cc1cccnc1NC(=O)[C@@H](C)c1ccc(-c2ccccc2)c(F)c1 [(S)-Flu-AM1]	0.99 µM	1 µM	2.4 µM	5.6±3.6	0.79 ± 0.28 µM	0.86 µM	0.94±0.04	1.31±0.16	mode of inhibition (best-fit model) (rat brain FAAH): linear mixed inhibition; IC50 (mouse brain FAAH [3]): 11 µM; pI50 (mouse brain FAAH [3]): 4.96±0.04
Cc1cccnc1NC(=O)[C@@H](C)c1ccc(CC(C)C)cc1 [(S)-Ibu-AM5, 2-(4-Isobutylphenyl)-N-(3-methylpyridin-2-yl)propanamide]	0.59 µM	0.589 µM	0.53 µM	3.2±1.5	0.8 ± 0.21 µM	0.89 µM	0.81±0.08	1.33±0.38	interaction with carprofen in multiple inhibition experiments (rat brain FAAH; 0.5 μM [3H]AEA): mutually exclusive manner; IC50 (mouse brain FAAH [2]; read-out: IC50): 7 µM; IC50 (mouse brain FAAH [2]; read-out: pI50 (converted)): 6.92 µM
CC(C(=O)O)c1ccc2c(c1)[nH]c1ccc(Cl)cc12 (stereo not shown) [Carprofen, reference compound]	–	–	–	–	–	–	1.66±0.13	–	nH [1, 6]: 4.28±0.41; nH [1, 7]: 3.00±0.31; maximum inhibition (best fit) ([1]; wild-type FAAH lysates, 18 h): 82–91%; nH (FAAH^T488A): 2.43±0.37
Cc1cccnc1NC(=O)Cc1ccc(CC(C)C)cc1 [Ibufenac-AM1, 2-(4-Isobutylphenyl)-N-(3-methylpyridin-2-yl)acetamide]	68 µM	67.6 µM	–	–	–	–	–	–	–
